pIC50: −log10 of the molar value.
Columns and labels:
KG1a cell line = assay: Annexin V/propidium iodide apoptosis assay; type: cell-based; conditions: 72 h, dose required to kill 50% of the cells
Protocol: (§1) Cells of the KG1a cell line were maintained in RPMI medium (Invitrogen, Paisley, UK) supplemented with 100 units/ml penicillin, 100 μg/ml streptomycin and 20% foetal calf serum. Cells were subsequently aliquoted (10^5 cells/100 μl) into 96-well plates and were incubated at 37° C. in a humidified 5% carbon dioxide atmosphere for 72 h in the presence of nucleoside analogues and their respective phosphoramidates at concentrations that were experimentally determined for each series of compounds. In addition, control cultures were carried out to which no drug was added. Cells were subsequently harvested by centrifugation and were analyzed by flow cytometry using the Annexin V assay.
Measurement of in vitro apoptosis. Cultured cells were harvested by centrifugation and then resuspended in 195 μl of calcium-rich buffer. Subsequently, 5 μl of Annexin V (Caltag Medsystems, Botolph Claydon, UK) was added to the cell suspension and cells were incubated in the dark for 10 mins prior to washing. Cells were finally resuspended in 190 μl of calcium-rich buffer together with 10 μl of propidium iodide. Apoptosis was assessed by dual-colour immunofluorescent flow cytometry as described previously. Subsequently LD50 values (the dose required to kill 50% of the cells in a culture) were calculated for each nucleoside analogue and phosphoramidate.
The data obtained in these experiments were evaluated using one way ANOVA. All data was confirmed as Gaussian or a Gaussian approximation using the omnibus K2 test. LD50 values were calculated from the non-linear regression and line of best-fit analysis of the sigmoidal dose-response curves. All statistical analyses were performed using Graphpad Prism 6.0 software (Graphpad Software Inc., San Diego, Calif.).

[1] = tested on: leukaemic stem cell compartment (Lin-/CD34+/CD38-/CD123+) within the KG1a cell line; assay: Immunophenotypic identification of the leukaemic stem cell compartment; type: cell-based; conditions: for Stem cell %: 72 h, LSC phenotype as percentage of all viable cells left, Control: 4%
Protocol: A further comparative analysis of the toxicity of compounds in the KG1a cell line over an extended dose range was carried out, and the relative effect assessed of the compounds on the leukaemic stem cell compartment within the KG1a cell line, across the entire dose range. Thus, experimental tests were performed on certain compounds of the present invention to assess their ability to target cancer stem cells in a leukaemic cell line. The acute myeloid leukaemia (AML) cell line, KG1a, was employed to assess the relative effect of compounds on the stem cell compartment. The KG1a cell line was selected because it manifests a minor stem cell-like compartment with a distinct immunophenotype (Lin^−/CD34^+/CD38^−/CD123^+).
as §1
KG1a cells were cultured for 72 h in the presence of a wide range of concentrations of each compound assayed. Cells were then harvested and labelled with a cocktail of anti-lineage antibodies (PE-cy7), anti-CD34 (FITC), anti-CD38 (PE) and anti-CD123 (PERCP cy5). The sub-population expressing a leukaemic stem cell (LSC) phenotype were subsequently identified and were expressed as a percentage of all viable cells left in the culture. […]

KG1 = assay: In vitro cytotoxicity, MTS assay; type: cell-based; conditions: Homo sapiens, KG-1, 72 h, read-out: Inhibitory concentration (IC50) KG1
Protocol: (§2) Cladribine phosphoramidate derivatives were evaluated against six leukaemic cell lines (KG1, U937, K562, NB4R2, NB4 and HL-60) in vitro. Inhibitory concentration (IC50) at which 50% of the cells were no longer viable (calculated using MTS assay) was determined. Cells were treated with Cladribine and its 3′-phosphoramidate derivatives at concentrations between 100 μM and 0.02 μM by serial dilutions and incubated for 72 h at 37° C., 5% CO2 in a final volume of 90 μL. Twenty microliters of MTS reagent (Promega UK Ltd, Southampton, Hants) was added to the tumour cell cultures and reaction incubated for a further 4 h at 37° C., 5% CO2. The absorbance of the reaction after this time was read by spectrophotometry at 490 nm and the percentage of viable cells calculated relative to untreated control cells in the same assay.

HL-60 = assay: In vitro cytotoxicity, MTS assay; type: cell-based; conditions: Homo sapiens, 72 h, read-out: Inhibitory concentration (IC50) HL-60
Protocol: as §2

NB4 = assay: In vitro cytotoxicity, MTS assay; type: cell-based; conditions: Homo sapiens, NB-4, 72 h, read-out: Inhibitory concentration (IC50) NB4
Protocol: as §2

K562 = assay: In vitro cytotoxicity, MTS assay; type: cell-based; conditions: Homo sapiens, 72 h, read-out: Inhibitory concentration (IC50) K562
Protocol: as §2

NB4R2 = assay: In vitro cytotoxicity, MTS assay; type: cell-based; conditions: 72 h, read-out: Inhibitory concentration (IC50) NB4R2
Protocol: as §2

U937 = assay: In vitro cytotoxicity, MTS assay; type: cell-based; conditions: Homo sapiens, U-937, 72 h, read-out: Inhibitory concentration (IC50) U937
Protocol: as §2

[2] = tested on: MCF7 cells infected with Mycoplasma hyorhnis (HYOR); assay: Cytostatic activity in mycoplasma-infected cells; type: cell-based, human; conditions: for pIC50: Homo sapiens, MCF7, 72 h, read-out: IC50 MCF7/HYOR; for Loss of potency: MCF7/HYOR versus MCF7
Text: (§3) Tumor cell cultures were infected with M. hyorhinis (ATCC 17981) and after two or more passages (to avoid bias by the initial inoculum) successful infection was confirmed using the MycoAlert™ mycoplasma detection kit (Lonza, Basel, Switzerland). Although this assay is only semi-quantitative, a maximal infection was observed 3 to 4 days after subcultivation of the mycoplasma-exposed cells. Chronically infected tumor cell lines are further referred to as Cell line.Hyor. All tumor cell cultures were maintained in Dulbecco's modified Eagle's medium (DMEM) (Invitrogen) supplemented with 10% fetal bovine serum (Biochrom AG, Berlin, Germany), 10 mm HEPES, and 1 mm sodium pyruvate (Invitrogen). Cells were grown at 37° C. in a humidified incubator with a gas phase containing 5% CO2.
(§4) The cytostatic activity of the test compounds was examined in mycoplasma-infected and uninfected cancer cell lines. When assaying the effect of M. hyorhinis infection, monolayer MCF7 and MCF7.Hyor cells were seeded in 48-well microtiter plates (Nunc™, Roskilde, Denmark) at 10,000 cells/well (Corning Inc., Corning, N.Y.) […]. After 24 h, the cells were exposed to different concentrations of test compound and allowed to proliferate for 72 h (to ensure sufficient cell proliferation and mycoplasma growth) after which the cells were trypsinized and counted using a Coulter counter (Analis, Suarlée, Belgium). Suspension cells (L1210, L1210.Hyor, FM3A, and FM3A.Hyor) were seeded in 96-well microtiter plates (Nunc) at 60,000 cells/well in the presence of different concentrations of test compound. The cells were allowed to proliferate for 48 h and then counted using a Coulter counter. The 50% inhibitory concentration (IC50) was defined as the compound concentration required to reduce cell proliferation by 50%.

MCF7 = assay: Cytostatic activity, cell counting (Coulter counter); type: cell-based; conditions: Homo sapiens, MCF7, 72 h, read-out: IC50 MCF7
Text: as §3, §4

[3] = tested on: HEL92.1.7 Erythroleukaemia; assay: In vitro viability assay, CellTiterGlo; type: cell-based
Protocol: (§5) In vitro viability assay was performed to assess the effects of compounds on cell viability in selected cell lines over 72 h using the CellTiterGlo (CTG, Promega-G7573) assay. The tests were performed in duplicates with treatment of compounds at 9 points, 3.16 folds titration in 96 well plates over ˜72 h. The compound starting concentrations were […]. Cell viability assay using CellTiterGlo in 96-well plate were performed. Compounds were dissolved to 40 mM with thawed 100% DMSO. Compounds were serially diluted at 3.16-fold in thawed DMSO, and warmed to 37° C. before being dissolved in media (2 μl+200 μl). After compounds were dissolved in media, media containing compounds were warmed to 37° C. in incubator and then compounds in media were added to cell plates (50 μl+50 μl) in duplicates. The compounds' final concentrations were from 198 μM to 19.9 nM. Solubility of all compounds was checked and recorded again, then the plates were transferred to CO2 tissue culture incubator immediately and incubated for 3 days. DMSO final concentration is 0.5%.

[4] = tested on: KG-1 Acute myelogenous leukaemia; assay: In vitro viability assay, CellTiterGlo; type: cell-based
Protocol: as §5

[5] = tested on: Z-138 Mantle cell lymphoma; assay: In vitro viability assay, CellTiterGlo; type: cell-based
Protocol: as §5

[6] = tested on: RL Non-Hodgkin's lymphoma; assay: In vitro viability assay, CellTiterGlo; type: cell-based; conditions: 72 h
Protocol: as §5

[7] = tested on: HL-60 Promyelocytic leukaemia; assay: In vitro viability assay, CellTiterGlo; type: cell-based
Protocol: as §5

[8] = tested on: L1210 cells infected with Mycoplasma hyorhinis (HYOR); assay: Cytostatic activity in mycoplasma-infected cells; type: cell-based, mouse
Text: as §3, §4

[9] = tested on: MCF-7 Mammary epithelial adenocarcinoma; assay: In vitro viability assay, CellTiterGlo; type: cell-based, human
Protocol: as §5

L1210 = assay: Cytostatic activity, cell counting (Coulter counter); type: cell-based; conditions: Mus musculus, L1210, 48 h, read-out: IC50 L1210
Text: as §3, §4

| SMILES | LD50 (KG1a cell line) [μm] | stem cell selectivity [1] | Stem cell % [1] [%] | pIC50 (KG1) | pIC50 (HL-60) | pIC50 (NB4) | pIC50 (K562) | pIC50 (NB4R2) | pIC50 (U937) | pIC50 [2] | Loss of potency [2] | pIC50 (MCF7) | other results |
| --- | --- | --- | --- | --- | --- | --- | --- | --- | --- | --- | --- | --- | --- |
| C[C@H](NP(=O)(Oc1cccc2ccccc12)OC1C[C@H](n2cnc3c(N)nc(Cl)nc32)O[C@@H]1CO)C(=O)OCc1ccccc1 (some centres unmarked) [Compound 18] | 0.27 | exhibited stem cell selectivity | 4 | 6.51 | 6.41 | 7.15 | 5.29 | 5.89 | 8.00 | – | – | – | targeting of LSCs when compared to cladribine [1]: showed preferential targeting of LSCs |
| C[C@H](NP(=O)(Oc1ccccc1)OC1C[C@H](n2cnc3c(N)nc(Cl)nc32)O[C@@H]1CO)C(=O)OCc1ccccc1 (some centres unmarked) [Compound 19] | 0.83 | exhibited stem cell selectivity | 3.1 | 6.42 | 7.00 | 6.62 | < 5.00 | 6.96 | 7.52 | 4.59 | 5-fold | 5.28 | – |
| C[C@H](NP(=O)(Oc1cccc2ccccc12)OC1C[C@H](n2cnc3c(N)nc(Cl)nc32)O[C@@H]1CO)C(=O)OCC(C)(C)C (stereo partly drawn) [Compound 6, 2-Chloro-2′-deoxyadenosine-3′-[1-naphthyl-(2,2-dimethylpropoxy-L-alaninyl)]phosphate] | – | – | – | – | 6.52 | 6.00 | – | – | – | – | – | – | Top Inhibition (%) ([3]; HEL92.1.7, CellTiterGlo, 72 h): 98.6%; EC50 ([3]; Homo sapiens, HEL 92.1.7, 72 h, read-out: EC50 (μM) Ab): 0.07 µM; EC50 ([4]; Homo sapiens, KG-1, 72 h, read-out: EC50 (μM) Ab): 1.2 µM; Top Inhibition (%) ([4]; KG-1, CellTiterGlo, 72 h): 98.6%; EC50 ([5]; Homo sapiens, Z-138, 72 h, read-out: EC50 (μM) Ab): 1.5 µM; Top Inhibition (%) ([5]; Z-138, CellTiterGlo, 72 h): 101%; Top Inhibition (%) ([6]; CellTiterGlo): 98.6%; EC50 ([6]; Homo sapiens, read-out: EC50 (μM) Ab): 0.29 µM; Top Inhibition (%) ([7]; HL-60, CellTiterGlo, 72 h): 96%; EC50 ([7]; Homo sapiens, HL-60, 72 h, read-out: EC50 (μM) Ab): 0.23 µM; Loss of potency ([8]; L1210/HYOR versus L1210): 4-fold; pIC50 ([8]; Mus musculus, L1210, 48 h, read-out: IC50 L1210/HYOR): 5.40; EC50 ([9]; Homo sapiens, MCF7, 72 h, read-out: EC50 (μM) Ab): 6.8 µM; Top Inhibition (%) ([9]; MCF-7, CellTiterGlo, 72 h): 102%; pIC50 (L1210): 6.00 |
| C[C@H](NP(=O)(OC[C@H]1O[C@@H](n2cnc3c(N)nc(Cl)nc32)CC1O)Oc1ccccc1)C(=O)OCc1ccccc1 (some centres unmarked) [Y, reference compound] | 1.7 | – | 2 | 6.17 | 5.76 | 6.64 | 5.09 | 6.20 | 7.10 | 4.48 | 16-fold | 5.68 | – |

Reference: patent US10906929B2, “Phosphoramidate nucleoside derivatives as anticancer agents” (NuCana plc, priority 2016, dated 2021)
